Experimental data: the NIST ThermoML archive (doi:10.1016/j.fluid.2017.11.013)
“And” between values parts separate entries of the source, which are not always exact repeats. Identical values can stand only once.

Details: Coaxial cylinder method

C=C [ethene]
Details | thermal conductivity
283.47 K, 101 kPa, Gas | 0.01865 W/m/K
283.47 K, 4620 kPa, Fluid (supercritical or subcritical phases) | 0.03417 W/m/K
283.47 K, 4770 kPa, Fluid (supercritical or subcritical phases) | 0.03732 W/m/K
283.47 K, 4910 kPa, Fluid (supercritical or subcritical phases) | 0.04251 W/m/K
283.47 K, 4960 kPa, Fluid (supercritical or subcritical phases) | 0.04566 W/m/K
283.47 K, 5050 kPa, Fluid (supercritical or subcritical phases) | 0.05593 W/m/K
283.47 K, 5090 kPa, Fluid (supercritical or subcritical phases) | 0.06391 W/m/K
283.47 K, 5120 kPa, Fluid (supercritical or subcritical phases) | 0.07425 W/m/K
283.47 K, 5140 kPa, Fluid (supercritical or subcritical phases) | 0.09013 W/m/K
283.47 K, 5150 kPa, Fluid (supercritical or subcritical phases) | 0.1049 W/m/K and 0.1032 W/m/K
283.47 K, 5160 kPa, Fluid (supercritical or subcritical phases) | 0.1241 W/m/K
283.47 K, 5170 kPa, Fluid (supercritical or subcritical phases) | 0.1339 W/m/K
283.47 K, 5180 kPa, Fluid (supercritical or subcritical phases) | 0.1143 W/m/K
283.47 K, 5190 kPa, Fluid (supercritical or subcritical phases) | 0.09843 W/m/K
283.47 K, 5200 kPa, Fluid (supercritical or subcritical phases) | 0.09006 W/m/K and 0.0888 W/m/K
283.47 K, 5210 kPa, Fluid (supercritical or subcritical phases) | 0.08522 W/m/K
283.47 K, 5220 kPa, Fluid (supercritical or subcritical phases) | 0.08191 W/m/K
283.47 K, 5230 kPa, Fluid (supercritical or subcritical phases) | 0.07984 W/m/K
283.47 K, 5240 kPa, Fluid (supercritical or subcritical phases) | 0.07787 W/m/K
283.47 K, 5250 kPa, Fluid (supercritical or subcritical phases) | 0.076 W/m/K
283.47 K, 5290 kPa, Fluid (supercritical or subcritical phases) | 0.07419 W/m/K
283.47 K, 5300 kPa, Fluid (supercritical or subcritical phases) | 0.07248 W/m/K
283.47 K, 5370 kPa, Fluid (supercritical or subcritical phases) | 0.07203 W/m/K
283.47 K, 5390 kPa, Fluid (supercritical or subcritical phases) | 0.07122 W/m/K
283.47 K, 5440 kPa, Fluid (supercritical or subcritical phases) | 0.06948 W/m/K
283.47 K, 5480 kPa, Fluid (supercritical or subcritical phases) | 0.06848 W/m/K
283.47 K, 5540 kPa, Fluid (supercritical or subcritical phases) | 0.06774 W/m/K
283.47 K, 5730 kPa, Fluid (supercritical or subcritical phases) | 0.06774 W/m/K
283.47 K, 5820 kPa, Fluid (supercritical or subcritical phases) | 0.06848 W/m/K
283.47 K, 5930 kPa, Fluid (supercritical or subcritical phases) | 0.06847 W/m/K
283.47 K, 6220 kPa, Fluid (supercritical or subcritical phases) | 0.07041 W/m/K
283.47 K, 6490 kPa, Fluid (supercritical or subcritical phases) | 0.07152 W/m/K
283.47 K, 6720 kPa, Fluid (supercritical or subcritical phases) | 0.07259 W/m/K
283.47 K, 6980 kPa, Fluid (supercritical or subcritical phases) | 0.07316 W/m/K
283.47 K, 7060 kPa, Fluid (supercritical or subcritical phases) | 0.07329 W/m/K
283.47 K, 7200 kPa, Fluid (supercritical or subcritical phases) | 0.07345 W/m/K
283.47 K, 7610 kPa, Fluid (supercritical or subcritical phases) | 0.07519 W/m/K
283.47 K, 8250 kPa, Fluid (supercritical or subcritical phases) | 0.07664 W/m/K
283.47 K, 8910 kPa, Fluid (supercritical or subcritical phases) | 0.07874 W/m/K
283.96 K, 101 kPa, Gas | 0.01869 W/m/K
283.96 K, 3380 kPa, Fluid (supercritical or subcritical phases) | 0.02528 W/m/K
283.96 K, 3960 kPa, Fluid (supercritical or subcritical phases) | 0.02767 W/m/K
283.96 K, 4620 kPa, Fluid (supercritical or subcritical phases) | 0.03396 W/m/K
283.96 K, 4970 kPa, Fluid (supercritical or subcritical phases) | 0.04334 W/m/K
283.96 K, 5050 kPa, Fluid (supercritical or subcritical phases) | 0.04855 W/m/K
283.96 K, 5090 kPa, Fluid (supercritical or subcritical phases) | 0.05262 W/m/K
283.96 K, 5110 kPa, Fluid (supercritical or subcritical phases) | 0.05631 W/m/K
283.96 K, 5120 kPa, Fluid (supercritical or subcritical phases) | 0.05987 W/m/K
283.96 K, 5150 kPa, Fluid (supercritical or subcritical phases) | 0.06832 W/m/K
283.96 K, 5190 kPa, Fluid (supercritical or subcritical phases) | 0.08914 W/m/K
283.96 K, 5200 kPa, Fluid (supercritical or subcritical phases) | 0.1005 W/m/K
283.96 K, 5210 kPa, Fluid (supercritical or subcritical phases) | 0.11 W/m/K
283.96 K, 5220 kPa, Fluid (supercritical or subcritical phases) | 0.1162 W/m/K
283.96 K, 5230 kPa, Fluid (supercritical or subcritical phases) | 0.1119 W/m/K
283.96 K, 5240 kPa, Fluid (supercritical or subcritical phases) | 0.1008 W/m/K
283.96 K, 5260 kPa, Fluid (supercritical or subcritical phases) | 0.08675 W/m/K
283.96 K, 5270 kPa, Fluid (supercritical or subcritical phases) | 0.08189 W/m/K
283.96 K, 5290 kPa, Fluid (supercritical or subcritical phases) | 0.0783 W/m/K
283.96 K, 5300 kPa, Fluid (supercritical or subcritical phases) | 0.07641 W/m/K
283.96 K, 5340 kPa, Fluid (supercritical or subcritical phases) | 0.07293 W/m/K
283.96 K, 5400 kPa, Fluid (supercritical or subcritical phases) | 0.07163 W/m/K
283.96 K, 5500 kPa, Fluid (supercritical or subcritical phases) | 0.06977 W/m/K
283.96 K, 5590 kPa, Fluid (supercritical or subcritical phases) | 0.06886 W/m/K
283.96 K, 5740 kPa, Fluid (supercritical or subcritical phases) | 0.06796 W/m/K
283.96 K, 5920 kPa, Fluid (supercritical or subcritical phases) | 0.06854 W/m/K
283.96 K, 6140 kPa, Fluid (supercritical or subcritical phases) | 0.06972 W/m/K
283.96 K, 6310 kPa, Fluid (supercritical or subcritical phases) | 0.0703 W/m/K
283.96 K, 6530 kPa, Fluid (supercritical or subcritical phases) | 0.0709 W/m/K
283.96 K, 6710 kPa, Fluid (supercritical or subcritical phases) | 0.07122 W/m/K
283.96 K, 7100 kPa, Fluid (supercritical or subcritical phases) | 0.07249 W/m/K
284.89 K, 101 kPa, Gas | 0.01877 W/m/K
284.89 K, 680 kPa, Fluid (supercritical or subcritical phases) | 0.02012 W/m/K
284.89 K, 1170 kPa, Fluid (supercritical or subcritical phases) | 0.02064 W/m/K
284.89 K, 2430 kPa, Fluid (supercritical or subcritical phases) | 0.02241 W/m/K
284.89 K, 3520 kPa, Fluid (supercritical or subcritical phases) | 0.02591 W/m/K
284.89 K, 4330 kPa, Fluid (supercritical or subcritical phases) | 0.03024 W/m/K
284.89 K, 4740 kPa, Fluid (supercritical or subcritical phases) | 0.03518 W/m/K
284.89 K, 4900 kPa, Fluid (supercritical or subcritical phases) | 0.03781 W/m/K
284.89 K, 5030 kPa, Fluid (supercritical or subcritical phases) | 0.04219 W/m/K
284.89 K, 5100 kPa, Fluid (supercritical or subcritical phases) | 0.04581 W/m/K
284.89 K, 5160 kPa, Fluid (supercritical or subcritical phases) | 0.05257 W/m/K
284.89 K, 5200 kPa, Fluid (supercritical or subcritical phases) | 0.05764 W/m/K
284.89 K, 5240 kPa, Fluid (supercritical or subcritical phases) | 0.0653 W/m/K
284.89 K, 5260 kPa, Fluid (supercritical or subcritical phases) | 0.06948 W/m/K
284.89 K, 5290 kPa, Fluid (supercritical or subcritical phases) | 0.08267 W/m/K
284.89 K, 5310 kPa, Fluid (supercritical or subcritical phases) | 0.09324 W/m/K
284.89 K, 5320 kPa, Fluid (supercritical or subcritical phases) | 0.09654 W/m/K
284.89 K, 5340 kPa, Fluid (supercritical or subcritical phases) | 0.09916 W/m/K
284.89 K, 5360 kPa, Fluid (supercritical or subcritical phases) | 0.08875 W/m/K
284.89 K, 5380 kPa, Fluid (supercritical or subcritical phases) | 0.08399 W/m/K
284.89 K, 5400 kPa, Fluid (supercritical or subcritical phases) | 0.07691 W/m/K
284.89 K, 5430 kPa, Fluid (supercritical or subcritical phases) | 0.07429 W/m/K
284.89 K, 5460 kPa, Fluid (supercritical or subcritical phases) | 0.07184 W/m/K
284.89 K, 5490 kPa, Fluid (supercritical or subcritical phases) | 0.06955 W/m/K
284.89 K, 5530 kPa, Fluid (supercritical or subcritical phases) | 0.06954 W/m/K
284.89 K, 5600 kPa, Fluid (supercritical or subcritical phases) | 0.06952 W/m/K
284.89 K, 5610 kPa, Fluid (supercritical or subcritical phases) | 0.06954 W/m/K
284.89 K, 5670 kPa, Fluid (supercritical or subcritical phases) | 0.06864 W/m/K
284.89 K, 5780 kPa, Fluid (supercritical or subcritical phases) | 0.06822 W/m/K
284.89 K, 5890 kPa, Fluid (supercritical or subcritical phases) | 0.06866 W/m/K
284.89 K, 6170 kPa, Fluid (supercritical or subcritical phases) | 0.06954 W/m/K
284.89 K, 6530 kPa, Fluid (supercritical or subcritical phases) | 0.07045 W/m/K
284.89 K, 7030 kPa, Fluid (supercritical or subcritical phases) | 0.07139 W/m/K
284.89 K, 7500 kPa, Fluid (supercritical or subcritical phases) | 0.07332 W/m/K
284.89 K, 8190 kPa, Fluid (supercritical or subcritical phases) | 0.07593 W/m/K
284.89 K, 8580 kPa, Fluid (supercritical or subcritical phases) | 0.07756 W/m/K
284.89 K, 8590 kPa, Fluid (supercritical or subcritical phases) | 0.07756 W/m/K
284.89 K, 9070 kPa, Fluid (supercritical or subcritical phases) | 0.07866 W/m/K
284.89 K, 9530 kPa, Fluid (supercritical or subcritical phases) | 0.07924 W/m/K
284.89 K, 9990 kPa, Fluid (supercritical or subcritical phases) | 0.08043 W/m/K
284.89 K, 10010 kPa, Fluid (supercritical or subcritical phases) | 0.08041 W/m/K
285.04 K, 5080 kPa, Fluid (supercritical or subcritical phases) | 0.04457 W/m/K
285.04 K, 5100 kPa, Fluid (supercritical or subcritical phases) | 0.04514 W/m/K
285.04 K, 5210 kPa, Fluid (supercritical or subcritical phases) | 0.05584 W/m/K
285.04 K, 5270 kPa, Fluid (supercritical or subcritical phases) | 0.06826 W/m/K
285.04 K, 5300 kPa, Fluid (supercritical or subcritical phases) | 0.07918 W/m/K
285.04 K, 5340 kPa, Fluid (supercritical or subcritical phases) | 0.09492 W/m/K
285.04 K, 5350 kPa, Fluid (supercritical or subcritical phases) | 0.09641 W/m/K
285.04 K, 5370 kPa, Fluid (supercritical or subcritical phases) | 0.09081 W/m/K
285.04 K, 5420 kPa, Fluid (supercritical or subcritical phases) | 0.07925 W/m/K
285.04 K, 5490 kPa, Fluid (supercritical or subcritical phases) | 0.07233 W/m/K
285.04 K, 5640 kPa, Fluid (supercritical or subcritical phases) | 0.06952 W/m/K
285.04 K, 6040 kPa, Fluid (supercritical or subcritical phases) | 0.06871 W/m/K and 0.0687 W/m/K
285.04 K, 6050 kPa, Fluid (supercritical or subcritical phases) | 0.06846 W/m/K
285.04 K, 6140 kPa, Fluid (supercritical or subcritical phases) | 0.06843 W/m/K
285.04 K, 6150 kPa, Fluid (supercritical or subcritical phases) | 0.06861 W/m/K
